Results published in US7122360B1, “Polypeptides, polynucleotides and uses thereof” (University of Dundee, priority 1998, dated 2006).
“Also recorded” adds a separate entry of the source.

Assays:
MSK1 [1] = test: Activation of transfected Flag-MSK1 in 293 cells; format: cell-based, human; conditions: for UV-induced activation of transfected MSK1 / activation of transfected MSK1 by TPA: 50 μM PD 98059 or 10 μM SB 203580
Procedure: FIG. 6. Effect of mutation of MSK1 on activation by TPA and UV in 293 cells. 293 cells were transiently transfected with DNA constructs expressing Flag epitope tagged wild type MSK1, N-terminal (NT) “kinase dead” MSK1 and C-terminal (CT) “kinase dead” MSK1. […] The cells were lysed and the MSK1 was immunoprecipitated from the lysates and assayed with Crosstide.
Transfection of MSK1 into 293 cells. 293 cells were cultured on 10 cm diameter dishes and transfected with the pCMV5 vector encoding the Flag epitope tagged MSK1 constructs using a modified calcium phosphate method (Alessi et al., 1996b). 24 h post-transfection, the cells were deprived of serum for 16 h, stimulated with TPA or exposed to UV radiation, the cells were then lysed in 1 ml of ice cold Buffer A, centrifuged at 13,000×g for 5 min, and the Flag tagged MSK1 protein immunoprecipitated from aliquots of lysate (containing 25 μg protein) using 2 μg of FLAG antibody coupled to 5 (1 of Protein G-Sepharose.
Immunoprecipitates were incubated, washed and assayed for MSK1 activity as described above.

MAPKAP-K1a/b [2] = test: Activation of MAPKAP-K1a/b by TNF in HeLa cells; format: cell-based; conditions: 50 μM PD 98059, 10 μM SB 203580
Excerpt: (§1) Cell Culture, stimulation and cell lysis.

MAPKAP-K1 [3] = test: Activation of MAPKAP-K1 in SK-N-MC cells; format: cell-based; conditions: 50 μM PD 98059, 10 μM SB 203580
Procedure: (§2) FIG. 14. […] After cell lysis aliquots were assayed for either MSK1 (A), MAPKAP-K1 (B), MAPKAP-K2 (C) after their immunoprecipitation from the lysates or immunoblotted for phosphorylation of CREB and ATF1 (D).
as §1

MAPK = conditions: PC12 cells expressing high levels of the NGF receptor (Alessi et al., 1995); cited from earlier work
MAPKAP-K1a/b [4] = test: Activation of MAPKAP-K1a/b in 293 cells; conditions: 50 μM PD 98059 or 10 μM SB 203580
MSK1 [5] = test: NGF-induced activation of MSK1 in PC12 cells; conditions: 50 μM PD 98059, 10 μM SB 203580, NGF 30 ng/ml 15 min
MSK1 [6] = target: MSK1 (Homo sapiens, UniProt O75582); test: Effect of Ro 318220 on GST-MSK1 activity in vitro; format: biochemical; conditions: compared with PKC isoforms and MAPKAP-K1a/b
Chain of MSK1 (Homo sapiens, UniProt O75582) (O75582 whole entry, canonical isoform): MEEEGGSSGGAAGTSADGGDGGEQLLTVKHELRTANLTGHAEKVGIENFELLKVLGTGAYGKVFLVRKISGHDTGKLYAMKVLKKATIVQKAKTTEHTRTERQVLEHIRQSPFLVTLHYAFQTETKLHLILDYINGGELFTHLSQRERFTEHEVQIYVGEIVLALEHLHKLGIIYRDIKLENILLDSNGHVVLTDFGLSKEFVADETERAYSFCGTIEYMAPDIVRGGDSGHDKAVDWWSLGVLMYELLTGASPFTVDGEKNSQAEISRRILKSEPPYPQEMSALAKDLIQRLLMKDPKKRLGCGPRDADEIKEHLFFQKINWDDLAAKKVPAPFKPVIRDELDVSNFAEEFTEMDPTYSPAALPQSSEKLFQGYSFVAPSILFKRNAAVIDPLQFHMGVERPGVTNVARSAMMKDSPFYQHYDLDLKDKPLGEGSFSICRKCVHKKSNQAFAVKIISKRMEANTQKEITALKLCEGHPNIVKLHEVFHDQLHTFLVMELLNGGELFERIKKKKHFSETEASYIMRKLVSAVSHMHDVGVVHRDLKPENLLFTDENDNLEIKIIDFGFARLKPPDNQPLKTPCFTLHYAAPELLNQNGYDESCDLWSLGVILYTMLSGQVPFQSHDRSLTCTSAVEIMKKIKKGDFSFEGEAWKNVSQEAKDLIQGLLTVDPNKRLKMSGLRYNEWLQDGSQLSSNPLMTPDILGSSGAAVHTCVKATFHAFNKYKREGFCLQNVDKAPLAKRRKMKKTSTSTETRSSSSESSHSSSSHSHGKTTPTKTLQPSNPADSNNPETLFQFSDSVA

PKC isoforms = test: Effect of Ro 318220 on mixed PKC isoforms in vitro; format: biochemical; conditions: Davis et al., 1989, Alessi 1997, FIG. 9A
Procedure: (§3) FIG. 9. Effect of Ro 318220 on the activity of MSK1. (A) Effect of Ro 318220 on GST-MSK1 (closed circles), mixed PKC isoforms (open circles) GST-MAPKAP-K1b and MAPKAP-K2 (open triangles) in vitro. […] The error for each point is ±10%. […] The cells were lysed MAPKAP-K2 was immunoprecipitated and assayed. […] (C) as above except that 293 cells were incubated for 2 h in 32phosphate (0.1 mCi/ml) before treatment with inhibitors. Cells were then exposed to either UV radiation (200 J/m2) or left untreated (−), incubated for a further 20 min in the continued presence of inhibitors. Following cell lysis, HSP27 was immunoprecipitated from cell extracts (Cuenda et al., 1995) run on a 15% polyacrylamide gel and autoradiographed.

MAPKAP-K1a/b [7] = target: T1, MAPKAP-K1a/b (Oryctolagus cuniculus, UniProt A0A5F9C4L9); test: Effect of Ro 318220 on MAPKAP-K1a/b in vitro; format: biochemical; conditions: Alessi 1997, FIG. 9A
T1 construct: GST
T1 sequence (A0A5F9C4L9 1-740): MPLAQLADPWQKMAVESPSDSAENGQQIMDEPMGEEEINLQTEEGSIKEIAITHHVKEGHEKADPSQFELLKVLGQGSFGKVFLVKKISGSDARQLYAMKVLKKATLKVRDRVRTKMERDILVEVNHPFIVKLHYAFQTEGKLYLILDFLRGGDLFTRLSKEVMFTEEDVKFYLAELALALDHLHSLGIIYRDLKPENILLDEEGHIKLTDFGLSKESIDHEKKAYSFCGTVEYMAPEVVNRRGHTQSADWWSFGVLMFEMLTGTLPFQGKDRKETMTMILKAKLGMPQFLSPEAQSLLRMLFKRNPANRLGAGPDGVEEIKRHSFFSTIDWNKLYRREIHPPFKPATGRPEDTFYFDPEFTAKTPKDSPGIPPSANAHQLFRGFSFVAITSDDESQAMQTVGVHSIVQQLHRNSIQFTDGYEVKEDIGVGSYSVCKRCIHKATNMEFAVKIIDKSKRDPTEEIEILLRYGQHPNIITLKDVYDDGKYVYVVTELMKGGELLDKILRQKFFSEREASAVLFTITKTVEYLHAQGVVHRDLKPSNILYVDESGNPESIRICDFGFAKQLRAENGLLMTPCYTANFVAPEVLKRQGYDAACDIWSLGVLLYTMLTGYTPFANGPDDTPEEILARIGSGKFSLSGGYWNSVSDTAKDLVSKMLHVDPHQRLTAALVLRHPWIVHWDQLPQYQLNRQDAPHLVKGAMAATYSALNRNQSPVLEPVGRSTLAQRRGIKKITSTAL
Procedure: as §3

MAPKAP-K2 [8] = target: T2, MAPKAP-K2 (Homo sapiens, UniProt P49137); test: Effect of Ro 318220 on MAPKAP-K2 in vitro; format: biochemical; conditions: even at 10 μM
T2 construct: GST; made in house; host or cells: bacteria
T2 sequence (P49137 46-400 limits assumed): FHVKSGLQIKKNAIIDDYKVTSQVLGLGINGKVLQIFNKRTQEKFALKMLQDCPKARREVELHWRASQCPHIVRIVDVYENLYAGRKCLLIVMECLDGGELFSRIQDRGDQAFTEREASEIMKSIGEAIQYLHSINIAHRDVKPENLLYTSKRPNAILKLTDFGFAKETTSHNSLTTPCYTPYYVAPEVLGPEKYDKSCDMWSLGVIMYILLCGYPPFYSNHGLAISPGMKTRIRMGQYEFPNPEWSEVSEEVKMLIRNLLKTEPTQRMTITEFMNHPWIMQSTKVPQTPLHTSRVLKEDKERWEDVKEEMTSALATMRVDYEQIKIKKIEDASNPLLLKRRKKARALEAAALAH
Procedure: as §3

HSP27 = test: UV induced phosphorylation of HSP27 in 293 cells; format: cell-based, human; conditions: UV 200 J/m^2
Procedure: as §3

MAPKAP-K2 [9] = test: Activation of MAPKAP-K2 by TNF in HeLa cells; format: cell-based
Excerpt: as §1

MAPKAP-K2 [10] = test: Activation of MAPKAP-K2 in SK-N-MC cells; format: cell-based; conditions: 50 μM PD 98059, 10 μM SB 203580, 5 μM Ro 318220
Procedure: as §2, §1

MAPKAP-K1 [11] = test: LPS-induced activation of MAPKAP-K1 in RAW 264 macrophages; format: cell-based, mouse; conditions: LPS 100 ng/ml 1 h, 10 μM UO 126, 5 TM Ro 318220
[12] = target: cyclic AMP dependent protein kinase (Homo sapiens, UniProt P17612); conditions: 10 μM Ro 318220 (Davis et al., 1989); cited from earlier work
MAPKAP-K2 [13] = test: Activation of MAPKAP-K2 in 293 cells; format: cell-based, human; conditions: 50 μM PD 98059 or 10 μM SB 203580
Procedure: as §3, §1

SMILES | UV-induced activation of transfected MSK1 (MSK1 [1]) | activation of transfected MSK1 by TPA (MSK1 [1]) | activation of transfected wild type MSK1 by EGF, basic FGF and serum (MSK1 [1]; data not shown) | activation of MAPKAP-K1a/b after 15 min of TNF stimulation (MAPKAP-K1a/b [2]) | activation of MAPKAP-K1 by FGF (MAPKAP-K1 [3]) | NGF-induced activation of MAPK (MAPK) | activation of MAPKAP-K1a/b by EGF and TPA (MAPKAP-K1a/b [4]) | NGF-induced activation of MSK1 (MSK1 [5]) | inhibition of MSK1 activity in vitro (MSK1 [6]) | IC50 (PKC isoforms) [nM] | IC50 (MAPKAP-K1a/b [7]) [nM] | inhibition of MAPKAP-K2 in vitro (MAPKAP-K2 [8]) | UV induced phosphorylation of HSP27 (HSP27) | activation of MAPKAP-K2 by TNF (MAPKAP-K2 [9]; 5 μM Ro 318220, data not shown) | activation of MAPKAP-K2 by sodium arsenite and FGF (MAPKAP-K2 [10]) | LPS-induced activation of MAPKAP-K1 (MAPKAP-K1 [11]) | inhibition of cyclic AMP dependent protein kinase [12] | activation of MAPKAP-K2 by stressful stimuli (MAPKAP-K2 [13]) | activation of MAPKAP-K2 after 5 min of TNF stimulation (MAPKAP-K2 [9]; 50 μM PD 98059, 10 μM SB 203580)
COc1cccc(-c2cc(=O)c3ccccc3o2)c1N [PD 98059] | unaffected | prevented | prevented | suppressed | abolished | only partially suppresses | largely suppressed | not significantly affected |  |  |  |  |  |  |  |  |  |  | 
Cn1cc(C2=C(c3cn(CCCSC(=N)N)c4ccccc34)C(=O)NC2=O)c2ccccc21 [Ro 318220] |  |  |  |  |  |  |  |  | equally potent inhibitor; also recorded: reversible inhibitor | 10 to 30 | 10 to 30 | does not significantly inhibit | did not significantly affect | unaffected | does not affect | does not affect | not significantly inhibited |  | 
C[S+]([O-])c1ccc(-c2nc(-c3ccncc3)c(-c3ccc(F)cc3)[nH]2)cc1 (stereo not shown) [SB 203580] | prevented | but not by SB 203580 |  |  |  |  | but not by SB 203580 | not significantly affected |  |  |  |  | blocked |  | completely prevented |  |  | prevented | inhibited
